Tested on: Pseudomonas aeruginosa PAM1001
Test: checkerboard assay (broth microdilution): levofloxacin MIC in presence of efflux pump inhibitor
Type: cell-based
Experimental: For compounds labeled with the prefix ‘M’, potentiation effect is observed by the reduction of the minimum inhibitory concentration of levofloxacin in the presence of the experimental efflux pump inhibitor. The activity of efflux pump inhibitors (EPI) in combination with fluoroquinolones, such as levofloxacin, is assessed by the checkerboard assay (Antimicrobial Combinations. In Antibiotics in Laboratory Medicine, Ed. Victor Lorian, M.D., Fourth edition, 1996, pp 333-338) using broth microdilution method performed as recommended by the National Committee for Clinical Laboratory Standards (1997). Methods for Dilution of Antimicrobial Susceptibility Tests for Bacteria That Grow Aerobically—Fourth Edition; Approved Standard. NCCLS Document M7-A4, Vol 17 No.2). The test organism used is Pseudomonas aeruginosa PAM1001. […] The compounds tabulated below are representative of the described invention.
In these assays, multiple dilutions of two drugs, namely the EPI and levofloxacin, are being tested, alone and in combination, at concentrations equal to, above and below their respective minimal inhibitory concentrations (MICs). In the case of EPI, most of these compounds are devoid of intrinsic antimicrobial activity and are tested up to the maximum concentration of 40 μg/mL. The MIC of levofloxacin against P. aeruginosa PAM1001 is 4 μg/mL.
The EPI tested are readily soluble in water and stock solutions are prepared at a final concentration of 2 mg/mL. Stock solutions are further diluted, according to the needs of a particular assay, in Mueller Hinton Broth (MHB). Stock solution can be stored at −80° C. Quinolones are solubilized according to the instructions of the manufacturers, at a concentration of 1 mg/mL. They are then further diluted in MHB. Stock solution can be stored at −80° C.
The checkerboard assay is performed in microtiter plates. Levofloxacin is diluted in the x axis, each column containing a single concentration of levofloxacin. The EPI is diluted in the y axis, each row containing an equal concentration of EPI. The result of these manipulations is that each well of the microtiter plate contains a unique combination of concentrations of the two agents. Each EPI are tested independently.
The assay is performed in MHB with a final bacterial inoculum of 5×10^5 CFU/mL (from an early-log phase culture). Microtiter plates are incubated during 20 h at 35° C. and are read using a microtiter plate reader (Molecular Devices) at 650 nm as well as visual observation using a microtiterplate reading mirror.

| Compound | Levofloxacin MIC Against P. aerugiuosa PAM1001 in Presence of Efflux Pump Inhibitor (EPI), Minimum Inhibitory Concentration (EPI Conc. 0 μg/mL) | Levofloxacin MIC Against P. aerugiuosa PAM1001 in Presence of Efflux Pump Inhibitor (EPI), Minimum Inhibitory Concentration (EPI Conc. 0.625 μg/mL) | Levofloxacin MIC Against P. aerugiuosa PAM1001 in Presence of Efflux Pump Inhibitor (EPI), Minimum Inhibitory Concentration (EPI Conc. 1.25 μg/mL) | Levofloxacin MIC Against P. aerugiuosa PAM1001 in Presence of Efflux Pump Inhibitor (EPI), Minimum Inhibitory Concentration (EPI Conc. 2.5 μg/mL) | Levofloxacin MIC Against P. aerugiuosa PAM1001 in Presence of Efflux Pump Inhibitor (EPI), Minimum Inhibitory Concentration (EPI Conc. 5 μg/ mL) | Levofloxacin MIC Against P. aerugiuosa PAM1001 in Presence of Efflux Pump Inhibitor (EPI), Minimum Inhibitory Concentration (EPI Conc. 10 μg/mL) | Levofloxacin MIC Against P. aerugiuosa PAM1001 in Presence of Efflux Pump Inhibitor (EPI), Minimum Inhibitory Concentration (EPI Conc. 20 μg/mL) | Levofloxacin MIC Against P. aerugiuosa PAM1001 in Presence of Efflux Pump Inhibitor (EPI), Minimum Inhibitory Concentration (EPI Conc. 40 μg/mL) |
| --- | --- | --- | --- | --- | --- | --- | --- | --- |
| CC(C)(C)c1ccc2oc(C(O)[C@@H](CCc3ccccc3)NC(=O)[C@H]3C[C@H](CN)CN3)nc2c1 (mixture of isomers) [Compound M68] | 4 µg/mL | 4 µg/mL | 4 µg/mL | 4 µg/mL | 4 µg/mL | 4 µg/mL | 0.5 µg/mL | 0.015 µg/mL |
| COc1cc(C)c2ncc(NC(=O)[C@@H](CC(C)C)NC(=O)[C@@H]3C[C@@H](NC(=O)CN)CN3)cc2c1 [Compound M10, (2S,4R)-4-(2-Aminoacetamido)-N-[(1R)-3-3-methyl-1-(6-methoxy-8-methyl-3-quinolylcarbamoyl)butyl]-2-pyrrolidinecarboxamide] | 4 µg/mL | 4 µg/mL | 4 µg/mL | 4 µg/mL | 4 µg/mL | 4 µg/mL | 1 µg/mL | 0.06 µg/mL |
| Cc1ccc2ncc(C(=O)NC[C@H]3C[C@H](CN)CN3)cc2c1 [Compound M72, (2R,4R)-4-(Aminomethyl)-2-(6-methyl-3-quinolylcarboxamidomethyl)pyrrolidine] | 4 µg/mL | 4 µg/mL | 4 µg/mL | 4 µg/mL | 4 µg/mL | 4 µg/mL | 2 µg/mL | 0.5 µg/mL |
| NC[C@@H]1CN[C@@H](C(=O)N[C@H](CCc2ccccc2)C(=O)NCc2cnc3ccccc3c2)C1 [Compound M32] | 4 µg/mL | 4 µg/mL | 4 µg/mL | 4 µg/mL | 2 µg/mL | 1 µg/mL | 0.25 µg/mL | 0.25 µg/mL |
| Cc1cc2nc(C(O)[C@@H](CCc3ccccc3)NC(=O)[C@@H]3C[C@@H](NC(=O)CN)CN3)oc2cc1C (mixture of isomers) [Compound M64, (2S,4R)-4-(2-Aminoacetamido)-N-[(1R)-1-[(RS)-(5,6-dimethyl-2-benzoxazoly)hydroxymethyl]-3-pheylpropyl]-2-pyrrolidinecarboxamide] | 4 µg/mL | 4 µg/mL | 4 µg/mL | 4 µg/mL | 4 µg/mL | 4 µg/mL | 4 µg/mL | 0.015 µg/mL |
| NC[C@@H]1CN[C@@H](C(=O)NCc2nc3ccc(-c4ccccc4)cc3[nH]2)C1 [Compound M89, (2R,4R)-4-(Aminomethyl)-N-[(5-phenyl-2-benzimidaxolyl)methyl]-2-pyrrolidinecarboxamide] | 4 µg/mL | 4 µg/mL | 4 µg/mL | 4 µg/mL | 2 µg/mL | 2 µg/mL | 0.03 µg/mL | 0.03 µg/mL |
| NC[C@H]1CN[C@@H](C(=O)NCc2nc3ccc(Cc4ccccc4)cc3[nH]2)C1 [Compound M87, (2R,4S)-4-(Aminomethyl)-N-[(5-benzyl-2-benzimidazoiyl)methyl]-2-pyrrolidinecarboxamide] | 4 µg/mL | 4 µg/mL | 4 µg/mL | 1 µg/mL | 0.125 µg/mL | 0.06 µg/mL | 0.03 µg/mL |  |
| CN(C(=O)CN)[C@@H]1CN[C@H](C(=O)N[C@H](CCc2ccccc2)C(=O)Nc2cnc3ccccc3c2)C1 [Compound M9] | 4 µg/mL | 4 µg/mL | 4 µg/mL | 4 µg/mL | 4 µg/mL | 4 µg/mL | 2 µg/mL | 0.06 µg/mL |
